Drawing on patent EP0300423A2, “Cephalosporin compound, method of its production and composition for prevention and treatment of bacterial infectious diseases” (Kyoto Pharmaceutical Industries, Ltd., priority 1987, dated 1989), this text covers MIC and LD50 for three compounds.

Data set [1] relates to Staphylococcus aureus Smith. The data set can be described thus: Antibacterial activity test, minimum inhibitory concentration. The class given is cell-based.
The next data set has as its system Escherichia coli NIH. The data set is described as above. It counts as cell-based.
Data set [2] in a line: Acute toxicity test, oral administration. To be noted: mouse, in vivo, male ICR mice, 5 weeks in age, n = 3, orally administered as aqueous solution in distilled water, read-out: LDso value. Here is the method: The acute toxicity of the orally administered cephalosporin derivative of this invention in mice was determined. The test is summarized as follows:
Subject animals: Male mice (ICR, at 5 weeks in age), n = 3
Method of administration: The cephalosporin derivative as obtained in Example 3 below was dissolved in distilled water, and this aqueous solution was orally administered.

Values after ≈ are worked out from the molar mass of the structure shown. Structures can show the parent of a compound that is named as a salt. Where only a bound is given, the exact number is not on record here.

In the case of `N[C@@H](C(=O)N[C@@H]1C(=O)N2C(C(=O)O)=C(Cl)CS[C@H]12)c1ccccc1` [Cefaclor, cefaclor, reference compound], the MIC in data set [1] came out at 1.56 µg/mL (≈ 4.24 µM); in the data set on Escherichia coli NIH, 0.78 µg/mL (≈ 2.12 µM).

As for `O=C(O)C1=C(CSc2ncns2)CS[C@@H]2[C@H](NC(=O)[C@H](O)c3ccccc3)C(=O)N12` [Example 1, 7-D-(-)Mandelamido-3-(1,2,4-thiadiazol-5-yl)thiomethyl-3-cephem-4-carboxylic acid], the MIC came to 0.2 µg/mL (≈ 0.431 µM) in data set [1] and 0.39 µg/mL (≈ 0.84 µM) against Escherichia coli NIH.

Consider `C[C@H](N)C(=O)O[C@@H](C(=O)N[C@@H]1C(=O)N2C(C(=O)OCOC(=O)C(C)(C)C)=C(CSc3ncns3)CS[C@H]12)c1ccccc1` [Example 3, Pivaloyloxymethyl 7-[D-O-(L-alanyl)mandelamido]-3-[(1,2,4-thiadiazol-5-yl)thiomethyl]-3-cephem-4-carboxylate hydrochloride], for which, in data set [2], the LD50 is less than 5000 mg/kg.

For orientation: MIC means the lowest concentration that inhibits growth of the organism. A lower MIC goes with inhibition by little substance.
